Laboratory results from US4487932A, “2,6-Dimethyl-3,5-bis-(1-adamantylhydr oxycarbonyl)-4-(2-difluoromethoxyphenyl)-1,4-dihydropyridine” (Institut Organicheskogo Sinteza Akademii Nauk Latviiskoi, priority 1983, dated 1984).
“Also recorded” adds a separate entry of the source. Where two headings read alike, the source gives them in different places.

Key:
white mice = assay: in vivo
From the text: (§1) The studies of acute toxicity established the present compound to be low-toxic.
(§2) Acute toxicity of investigated compounds for
(§3) white mice upon intraperitoneal administration

[1] = test system: systolic arterial pressure; conditions: for lowering of the systolic arterial pressure: 1 hour after peroral administration; for lowering of the systolic arterial pressure / lowering of the arterial pressure: present compound 10 mg/kg; for lowering of the arterial pressure: in 5 hours after peroral administration
[2] = test system: myocardial ischemia (partial occlusion of the coronary artery); assay: rise of ST segment (epicardiac ECG) in partial occlusion of the coronary artery with superposition of a high artificial rhythm; type: in vivo, cats and dogs
in vivo = conditions: mouse, in vivo, ip
From the text: as §1, §2, §3

solubility = type: physicochemical; conditions: ethyl alcohol, chloroform, and other organic solvents and oils
[3] = test system: coronary circulation / cardiovascular system; conditions: for Duration: increase of coronary blood flow
From the text: The action of 2,6-dimethyl-3,5-bis-(1-adamantylhydroxycarbonyl)-4-(2-difluoromethoxyphenyl)-1,4-dihydropyridine on the cardiovascular system was investigated in experiments with cats, rats, and mice.

[4] = test system: myocardial ischemia (complete occlusion of the coronary artery); assay: ischemic change in the heart in complete occlusion of the coronary artery; type: in vivo, dogs
[5] = test system: arrhythmia and cardiac arrest caused by calcium chloride; assay: calcium chloride model of arrhythmia in white mice; type: in vivo
stability in storage = type: physicochemical; conditions: conventional conditions
arterial pressure = arterial pressure in rats of the line SHR, daily peroral administration during 10 days; type: in vivo
Protocol: The application of the present compound with daily peroral administration to rats of the line SHR in the dose of 20 mg/kg during 10 days causes lowering of the arterial pressure by 30-60 mm Hg during 24 hours. […] After the administration of the present compound was discontinued, the systolic arterial pressure gradually rose and reached the control group value in 3 days.

[6] = test system: arrhythmia caused by barium chloride; assay: barium chloride arrhythmia in rabbits; type: in vivo
[7] = test system: venous blood outflowing from the coronary sinus of the heart; assay: content of oxygen in venous blood outflowing from the coronary sinus; minute volume of the heart; type: in vivo, cats; conditions: 0.2 to 3 mg/kg
aconitic arrhythmia = assay: aconitic model of arrhythmia in albino rats; type: in vivo; conditions: peroral and intravenous administration
[8] = white mice, intraperitoneal, present compound = 1
[9] = narcotized cats, dose 0.05 mg/kg
[10] = narcotized cats, dose 0.50 mg/kg
[11] = narcotized cats, dose 2.00 mg/kg
[12] = preliminary peroral, 2 to 10 mg/kg, barium chloride 4 mg/kg intravenously

CCN(CC)CCNC(=O)c1ccc(N)cc1 [Novocainamide (procainamide), reference compound]
Relative toxicity (white mice; mouse, in vivo, ip): 28.9

C=C[C@H]1C[N@@]2CC[C@H]1C[C@@H]2[C@@H](O)c1ccnc2ccc(OC)cc12 [Quinidine, reference compound]
Relative toxicity (white mice; [8]): 53.8

COc1ccc(Cc2nccc3cc(OC)c(OC)cc23)cc1OC [Papaverine, reference compound]
Relative toxicity (white mice; [8]): 92.3

COC(=O)C1=C(C)NC(C)=C(C(=O)OC)C1c1ccccc1[N+](=O)[O-] [Niphedipine, 2,6-dimethyl-4-o-nitrophenyl-3,5-dimethoxycarbonyl-1,4-dihydropyridine, reference compound]
lowering of the systolic arterial pressure [1]: 51.7 mm Hg
lowering of the arterial pressure [1]: 14 mm Hg
prevention of the rise of the ST segment ([2]; intravenous, 0.01 to 0.05 mg/kg, partial occlusion + high artificial rhythm): only in an insignificant prevention of the rise of the ST segment

CC1=C(C(=O)OC23CC4CC(CC(C4)C2)C3)C(c2ccccc2OC(F)F)C(C(=O)OC23CC4CC(CC(C4)C2)C3)=C(C)N1 (stereo not shown) [Present compound, 2,6-dimethyl-3,5-bis-(1-adamantylhydroxycarbonyl)-4-(2-difluoromethoxyphenyl)-1,4-dihydropyridine]
Relative toxicity (white mice; mouse, in vivo, ip): 1
LD50 (white mice; white mice, intraperitoneal): 8400(6885.2-10248) mg/kg
toxicity relative to niphedipine (white mice; white mice, intraperitoneal): 1/44
toxicity relative to quinidine (white mice; white mice, intraperitoneal): 1/53
LD50 (in vivo): 8400 mg/kg
solubility (solubility): readily soluble in ethyl alcohol, chloroform, and other organic solvents and oils
effect on arterial pressure, systemic venous pressure and aortal blood flow ([3]; 0.005 to 3 mg/kg): does not cause sharp drop of the arterial pressure, noticeable increase of the systemic venous pressure, or diminution of the aortal blood flow
undesirable effects (sharp drop of arterial pressure, diminishing of arterial/aortal blood flow, increase of systemic venous pressure) ([3]; 0.05 to 3 mg/kg): causing no undesirable effects; also recorded: without causing such undesirable effects as sharp drop of the arterial pressure or pronounced diminishing of the aortal blood flow
duration of action compared with niphedipine ([3]; equiactive doses): twice as durative
rising of the systemic venous pressure ([3]; large doses, intravenous administration): does not bring about rising of the systemic venous pressure
coronarodilating action ([3]; narcotized cats): pronounced coronarodilating action
coronarodilating activity compared with niphedipine ([3]; narcotized cats): somewhat inferior to niphedipine in activity
Change of aortal blood flow [3, 9]: +5%
Increase of space velocity of coronary blood flow [3, 9]: 10%
Lowering of arterial pressure [3, 9]: 0%
Duration [3, 9]: 25 min
Change of aortal blood flow [3, 10]: +12%
Change of systemic venous pressure [3, 10]: -10%
Increase of space velocity of coronary blood flow [3, 10]: 60%
Lowering of arterial pressure [3, 10]: 5%
Duration [3, 10]: 50 min
Change of aortal blood flow [3, 11]: +20%
Change of systemic venous pressure [3, 11]: +8%
Increase of space velocity of coronary blood flow [3, 11]: 120%
Lowering of arterial pressure [3, 11]: 20%
Duration [3, 11]: 90 min
lowering of the systolic arterial pressure [1]: 31.5 mm Hg
lowering of the arterial pressure [1]: 8.6 mm Hg
lowering of arterial pressure compared with niphedipine ([1]; peroral 10 mg/kg): less pronounced than the action of niphedipine
myocardial ischemia ([4]; complete occlusion and also partial occlusion with high artificial rhythm, cats and dogs): diminishes myocardial ischemia
ischemic change in the heart ([4]; dogs, preliminary administration, 0.5 to 2 mg/kg, complete occlusion): considerably diminished the ischemic change in the heart
antiarrhythmic activity compared with novocainamide (procainamide) and quinidine ([5]; calcium model of arrhythmia): in smaller doses, and in a more pronounced manner; also recorded: exceeds that of novocainamide (procainamide) and quinidine
prevention of arrhythmia and cardiac arrest ([5]; peroral, 1 to 5 mg/kg, calcium chloride intravenous): prevents the appearance of arrhythmia and cardiac arrest
stability in storage (stability in storage): stable when stored under conventional conditions
time for systolic arterial pressure to reach the control group value after discontinuation (arterial pressure; after daily peroral 20 mg/kg during 10 days): 3 days
pulse frequency (arterial pressure; daily peroral 20 mg/kg during 10 days): No increase of the pulse frequency was observed
lowering of the arterial pressure (arterial pressure; daily peroral 20 mg/kg during 10 days, during 24 hours): 30-60 mm Hg
effectiveness by ECG data (epicardium lead) compared with niphedipine and nitroglycerine ([2]; experiments with cats and dogs): more effective than niphedipine and nitroglycerine
effect compared with nitroglycerine ([2]; intravenous 0.3 to 2 mg/kg vs nitroglycerine 0.05 mg/kg): almost two times more durative and more pronounced than of nitroglycerine
rise of the ST segment on epicardiac leads of the ECG ([2]; preliminary intravenous, 0.3 to 2 mg/kg, partial occlusion + high artificial rhythm): considerably diminishes, and in some cases even completely precludes a rise of the ST segment
prophylactic and therapeutic effect on barium arrhythmia [6]: prophylactic and therapeutic effect
alleviation of arrhythmia [6, 12]: considerably alleviates arrhythmia
shortening of arrhythmia [6, 12]: 2-5 times
minute volume of the heart [7]: somewhat increases
content of oxygen in venous blood outflowing from the coronary sinus ([7]; cats): increases the content of oxygen in venous blood; also recorded: increases the content of oxygen in the venous blood
prophylactic and therapeutic activity on aconitic arrhythmia (aconitic arrhythmia): considerable prophylactic and therapeutic activity; also recorded: prophylactic and therapeutic effect
